Test: Maximum absorption wavelength (λmax) of the illustrative compounds in solvent
Format: physicochemical
Details: EtOAc

| maximum absorption wavelength (λmax) | SMILES |
| --- | --- |
| 357 nm | CCCCC(CC)C(=O)Oc1ccc(OC(=O)C(CC)CCCC)c2c1SC(=C(C#N)C(N)=O)S2 (stereo not drawn) [S-20] |
| 363 nm | CCCCC(CC)C(=O)Oc1ccc(OC(=O)C(CC)CCCC)c2c1SC(=C(C#N)C#N)S2 (stereo not drawn) [S-17] |
| 375 nm | CCCCC(CC)C(=O)Oc1ccc(OC(=O)C(CC)CCCC)c2c1SC(=C(C#N)C(=O)C(C)(C)C)S2 (stereo not drawn) [S-01] |
| 382 nm | CC(CCOc1ccc(OCCC(C)CC(C)(C)C)c2c1SC(=C(C#N)C(=O)C(C)(C)C)S2)CC(C)(C)C (stereo not drawn) [S-28] |
| 382 nm | CC(C)(C)C(=O)C(C#N)=C1Sc2c(OCCO)ccc(OCCO)c2S1 [S-29] |
| 369 nm | CC(CCOc1ccc(OCCC(C)CC(C)(C)C)c2c1SC(=C(C#N)C#N)S2)CC(C)(C)C (stereo not drawn) [S-27] |
| 369 nm | CCCCC(CC)COc1ccc(OCC(CC)CCCC)c2c1SC(=C(C#N)C#N)S2 (stereo not drawn) [S-26] |
| 382 nm | CCCCC(CC)COc1ccc(OCC(CC)CCCC)c2c1SC(=C(C#N)C(=O)C(C)(C)C)S2 (stereo not drawn) [S-06] |

Same assay, conditions: MeOH

| maximum absorption wavelength (λmax) | SMILES |
| --- | --- |
| 369 nm | N#CC(C#N)=C1Sc2c(OCCO)ccc(OCCO)c2S1 [S-30] |

— US20110059033A1, “ULTRAVIOLET ABSORBING COMPOSITION” (FUJIFILM Corporation, priority 2009, published 2011)
